Target: T1, Lysosomal acid glucosylceramidase (Homo sapiens, UniProt P04062)
T1 sequence (P04062 whole entry): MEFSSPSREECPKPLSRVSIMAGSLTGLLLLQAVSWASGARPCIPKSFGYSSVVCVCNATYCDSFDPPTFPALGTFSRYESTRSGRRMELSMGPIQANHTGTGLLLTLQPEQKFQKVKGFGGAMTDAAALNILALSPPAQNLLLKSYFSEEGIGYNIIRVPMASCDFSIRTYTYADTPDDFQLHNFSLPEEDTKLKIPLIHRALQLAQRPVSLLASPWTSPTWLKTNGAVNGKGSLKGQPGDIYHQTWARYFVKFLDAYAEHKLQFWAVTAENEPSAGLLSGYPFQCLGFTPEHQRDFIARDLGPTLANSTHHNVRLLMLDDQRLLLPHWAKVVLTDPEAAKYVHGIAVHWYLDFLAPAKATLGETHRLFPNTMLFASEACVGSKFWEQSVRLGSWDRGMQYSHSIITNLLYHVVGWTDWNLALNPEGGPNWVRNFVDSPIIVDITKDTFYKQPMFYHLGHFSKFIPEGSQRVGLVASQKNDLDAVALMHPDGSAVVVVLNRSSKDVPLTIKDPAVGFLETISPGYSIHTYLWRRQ
Assay: Chaperone activity at GCase in wild-type human fibroblasts assessed as increase in GPN-induced reduction of calcium release using Fluo-8AM based fluorescence assay

| Compound | EC50 [nM] |
| --- | --- |
| C/C=C/c1ccccc1C(CCCC)C(=O)c1ccc(OCCN(C)C)cc1 (centres undefined) | 1100 |
| CC(C)CC(C(=O)c1ccc(OCCN(C)C)cc1)c1ccccc1C(C)C (centres undefined) | 1100 |
| CC(C)CC(C(=O)c1ccc(OCCN(C)C)cc1)c1ccccc1C1CC1 (centres undefined) | 1100 |
| CCCCC(C(=O)c1ccc(OCCN(C)C)cc1)c1ccccc1C(C)C (centres undefined) | 700 |
